These results are taken from patent publication US20030181389A1, “Therapeutic and prophylactic use of reduced forms of pharmaceutical compounds” (priority 2000, published 2003).

Data set [1] in a line: xanthine/xanthine oxidase superoxide assay: oxidation of leuco compounds, with SOD added after sixth minute. Format: biochemical. The note with it: for effect of addition of SOD on rate of oxidation of the leuco compound: 5 units of SOD added after the sixth minute; for oxidation of leucomethylene blue (665 nm), rate of change of optical density / oxidation of leucothionine (605 nm), rate of change of optical density: 12.5 μM. The text has this: The principle upon which the following assay is based is that the enzyme xanthine oxidase acts on xanthine to oxidise xanthine and thereby to reduce ferricytochrome C by a mechanism which, at least partly, involves superoxide. Thus, the reduction (and increase) in optical density of ferricytochrome C is dependent on superoxide as a reductant. The inclusion of superoxide dismutase (“SOD”) in the assay serves to dismutate some of the available superoxide, thus causing a decrease in the rate of reduction of ferricytochrome C. […]
Superoxide is a single electron reductant or oxidant.
To explore the effect of leucothionine and leucomethylene blue, these compounds were mixed at 12.5 μM concentration in 50 mM potassium phosphate buffer (pH 7.8) with xanthine (50 μM) and EDTA (100 μM) buttermilk xanthine oxidase (around […]) was then added to give a rate of increase in absorbance of about 0.1 optical density units (for methylene blue at 665 nm and for thionine at 605 nm) per minute at 30° C. above controls using leucothionine or leucomethylene blue, potassium phosphate buffer, xanthine and EDTA alone.

Data set [2] in a line: direct oxidation of leuco compounds by potassium superoxide. It is filed as biochemical. The note with it: for final optical density leucomethylene blue (665 nm) / direct oxidation of the leuco compound by potassium superoxide / final optical density leucothionine (605 nm): approximately 10 μM, pH 7.8; for final optical density leucomethylene blue (665 nm) / final optical density leucothionine (605 nm): potassium superoxide; for colour change of the cell: after potassium superoxide addition; for direct oxidation of the leuco compound by potassium superoxide: EDTA 100 μM. How it is done:
In a further experiment, potassium superoxide was added to a reaction cell containing buffers, EDTA and concentrations of leucothionine and leucomethylene blue. Direct oxidation of the leuco compounds was observed by superoxide.
Potassium superoxide was added directly to nitrogen gassed potassium phosphate buffer (pH 7.8) containing EDTA (100 μM) and approximately 10 μM concentration of leucothionine and leucomethylene blue.
Due to the effervescence of the cell, a known property of potassium superoxide in water, no measurements were possible in the first 4 minutes of the reaction.

The nature of data set [3]: adrenochrome system: auto-oxidation of dl-epinephrine. The note with it: dl-epinephrine 500 μM, pH 10.2; for oxidation peak of Leucomethylene blue (665 nm) / effect on appearance of adrenochrome at 310 nm / oxidation peak of Leucothionine (605 nm): 50 μM; for appearance of adrenochrome (310 nm) in presence of leuco compound: leuco compound 50 μM; for appearance of adrenochrome (310 nm) in presence of leuco compound / effect on appearance of adrenochrome at 310 nm: 30° C. It is filed as biochemical. The text has this: In another experiment, the results of the experiment in Example 1 above were confirmed by using the adrenochrome system. In this system, dl-epinephrine is auto-oxidised under alkaline conditions by a superoxide dependent pathway. The reaction rate of this reaction can be decreased or interrupted by the addition of SOD, which scavenges superoxide. […] In this system, the rate of auto-oxidation of dl-epinephrine is decreased by the presence of either leuco compound, while the leuco compounds themselves are oxidised by superoxide in a rate dependent manner.
In this experiment, dl-epinephrine (500 μM) was allowed to auto-oxidise in 50 mM sodium carbonate buffer (pH 10.2) containing EDTA (100 μM) at 30° C. under these conditions, epinephrine is oxidised to adrenochrome (310 or 485 nm increase in absorption).

Data set [4] can be described thus: oxygen superoxide scavenging (recent research). Format: biochemical. The note with it: stabilised leucomethylene blue.
The test system of another data set is haemoglobin. The settings on record: chronic toxicity studies, laboratory animals; cited from earlier work.
The mark [5] stands for this setting: minute 1, before SOD, pH 7.8, 30° C.
The mark [6] stands for this setting: minute 2, before SOD, pH 7.8, 30° C.
Setting [7] is: minute 3, before SOD, pH 7.8, 30° C.
Setting [8] is: minute 4, before SOD, pH 7.8, 30° C.
The mark [9] stands for this setting: minute 5, before SOD, pH 7.8, 30° C.
The mark [10] stands for this setting: minute 6, before SOD, pH 7.8, 30° C.
[11] abbreviates: minute 7, after addition of 5 units of SOD.
[12] abbreviates: minute 8, after addition of 5 units of SOD.
Where [13] appears, read: minute 9, after addition of 5 units of SOD.
The mark [14] stands for this setting: minute 10, after addition of 5 units of SOD.
[15] abbreviates: minute 11, after addition of 5 units of SOD.
Setting [16] is: minute 12, after addition of 5 units of SOD.

Marks after values point to notes of the source that are not given here.

For the molecule `CN(C)c1ccc2c(c1)Sc1cc(N(C)C)ccc1N2` [leucomethylene blue], the “effect of addition of SOD on rate of oxidation of the leuco compound” value in data set [1] is “decreased the rate of oxidation”. The “oxidation of leucomethylene blue (665 nm), rate of change of optical density” value came out at 0.096 in data set [1] (setting [5]); 0.102 in data set [1] (setting [6]); 0.110 in data set [1] (setting [7]); 0.101 in data set [1] (setting [8]); 0.099 in data set [1] (setting [9]); 0.103 in data set [1] (setting [10]). Besides, the “oxidation of leucomethylene blue (665 nm), rate of change of optical density” value in data set [1] (setting [11]) is listed as 0.030 *; in data set [1] (setting [12]) it was 0.017; in data set [1] (setting [13]) it was 0.014; in data set [1] (setting [14]) it was 0.013; in data set [1] (setting [15]), 0.010; in data set [1] (setting [16]), 0.010. The “final optical density leucomethylene blue (665 nm)” value in data set [2] (0 minutes) is 0.015; in data set [2] (5 minutes), 0.38; in data set [2] (6 minutes) it was 0.44; in data set [2] (7 minutes), 0.46; in data set [2] (8 minutes) it was 0.44. The “colour change of the cell” value in data set [2] is listed as “colourless to blue”. In addition, the “direct oxidation of the leuco compound by potassium superoxide” value in data set [2] was “rapidly oxidised to their coloured oxidised states”. Also, the “oxidation peak of Leucomethylene blue (665 nm)” value in data set [3] (0 minutes) amounted to 0.006; in data set [3] (1 minute), 0.093; in data set [3] (2 minutes) it was 0.110; in data set [3] (3 minutes), 0.120; in data set [3] (4 minutes) it was 0.116; in data set [3] (5 minutes) it was 0.121. Also, in data set [3] (6 minutes), the “oxidation peak of Leucomethylene blue (665 nm)” value is reported as 0.119. Also, the “appearance of adrenochrome (310 nm) in presence of leuco compound” value (from here on “appearance of adrenochrome (310 nm)”) worked out at 0.005 in data set [3] (0 minutes); 0.031 in data set [3] (1 minute); 0.021 in data set [3] (2 minutes); 0.030 in data set [3] (3 minutes); 0.035 in data set [3] (4 minutes); 0.031 in data set [3] (5 minutes). Further, in data set [3] (6 minutes), the “appearance of adrenochrome (310 nm)” value was found to be 0.038. Also, the “effect on appearance of adrenochrome at 310 nm” value in data set [3] is listed as “effective in reducing the appearance of adrenochrome”. In addition, the oxygen superoxide scavenging result in data set [4] was “powerful oxygen superoxide scavenger”.

In the case of `Nc1ccc2c(c1)Sc1cc(N)ccc1N2` [leucothionine], the “effect of addition of SOD on rate of oxidation of the leuco compound” value in data set [1] was “decreased the rate of oxidation”. Besides, the “oxidation of leucothionine (605 nm), rate of change of optical density” value in data set [1] (setting [5]) came out at 0.086; in data set [1] (setting [6]) it was 0.093; in data set [1] (setting [7]) it was 0.093; in data set [1] (setting [8]), 0.095; in data set [1] (setting [9]) it was 0.101; in data set [1] (setting [10]) it was 0.096. In addition, the “oxidation of leucothionine (605 nm), rate of change of optical density” value is given as 0.041 * in data set [1] (setting [11]); 0.009 in data set [1] (setting [12]); 0.009 in data set [1] (setting [13]); 0.011 in data set [1] (setting [14]); 0.008 in data set [1] (setting [15]); 0.009 in data set [1] (setting [16]). The “final optical density leucothionine (605 nm)” value in data set [2] (0 minutes) was determined as 0.035; in data set [2] (5 minutes) it was 0.42; in data set [2] (6 minutes), 0.45; in data set [2] (7 minutes), 0.45; in data set [2] (8 minutes), 0.46. For the same molecule, the “colour change of the cell” value in data set [2] is “purple”. Further, the “direct oxidation of the leuco compound by potassium superoxide” value in data set [2] is “rapidly oxidised to their coloured oxidised states”. The “oxidation peak of Leucothionine (605 nm)” value in data set [3] (0 minutes) is 0.007; in data set [3] (1 minute), 0.083; in data set [3] (2 minutes), 0.121; in data set [3] (3 minutes), 0.110; in data set [3] (4 minutes), 0.114; in data set [3] (5 minutes), 0.116. Besides, the “oxidation peak of Leucothionine (605 nm)” value in data set [3] (6 minutes) was 0.120. For the same molecule, the “appearance of adrenochrome (310 nm)” value in data set [3] (0 minutes) was 0.005; in data set [3] (1 minute), 0.034; in data set [3] (2 minutes) it was 0.027; in data set [3] (3 minutes), 0.033; in data set [3] (4 minutes), 0.034; in data set [3] (5 minutes), 0.028. Also, the “appearance of adrenochrome (310 nm)” value in data set [3] (6 minutes) amounted to 0.032. Besides, the “effect on appearance of adrenochrome at 310 nm” value in data set [3] is given as “effective in reducing the appearance of adrenochrome”.

Consider `CN(C)c1ccc2nc3ccc(=[N+](C)C)cc-3sc2c1` [methylene blue], for which, in the data set with haemoglobin, the “haematological toxicity on repeated administration of high doses” value was “causes oxidation of haemoglobin to methaemoglobin and tissue accumulation of Heinz bodies”.
